Laboratory results reported in patent publication US20250263395A1, “COMPOUNDS THAT MEDIATE PROTEIN DEGRADATION AND METHODS OF USE THEREOF” (Monte Rosa Therapeutics AG, priority 2022, published 2025).

Key:
CRBN-DDB1 = CRBN-DDB1 (Homo sapiens (Human), UniProt Q96SW2); assay: CRBN HTRF assay (Cy5-Thalidomide probe displacement); type: binding; conditions: CRBN-DDB1 2.5 nM, Cy5-Thalidomide 100 nM, 30 min; Ki from geometric mean IC50 by Cheng-Prusoff
How it was run: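 HTRF displacement of Cy5-thalidomide probe (100 nM) from His-CRBN-DDB1 (2.5 nM) with anti-His terbium cryptate, in HEPES/NaCl/TCEP/EDTA/Tween20 buffer. 10-point 1:3 compound series, 30 min at ambient temperature; signal normalised to DMSO and lenalidomide controls, IC50 fitted and Ki derived by Cheng-Prusoff.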

CDK2 = CDK2 (Homo sapiens (Human), UniProt P24941); assay: CDK2 NanoBiT assay (HiBiT-tagged CDK2 degradation); type: cell-based; conditions: HEK293, HEK293 clonal line, C-terminal HiBiT tag on CDK2, LgBiT; 24 hours
How it was run: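 HEK293 line with CRISPR knock-in C-terminal HiBiT-tagged CDK2 and stable LgBiT, preincubated 16 h with live-cell substrate, then compound-treated 24 h at 37° C, 5% CO2 (30 μM stock). Luminescence normalized to plate negative and positive controls; EC50 from 3-parameter logistic fit, Hill slope 1.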

CRBN-DDB1, sequence (Q96SW2 whole entry): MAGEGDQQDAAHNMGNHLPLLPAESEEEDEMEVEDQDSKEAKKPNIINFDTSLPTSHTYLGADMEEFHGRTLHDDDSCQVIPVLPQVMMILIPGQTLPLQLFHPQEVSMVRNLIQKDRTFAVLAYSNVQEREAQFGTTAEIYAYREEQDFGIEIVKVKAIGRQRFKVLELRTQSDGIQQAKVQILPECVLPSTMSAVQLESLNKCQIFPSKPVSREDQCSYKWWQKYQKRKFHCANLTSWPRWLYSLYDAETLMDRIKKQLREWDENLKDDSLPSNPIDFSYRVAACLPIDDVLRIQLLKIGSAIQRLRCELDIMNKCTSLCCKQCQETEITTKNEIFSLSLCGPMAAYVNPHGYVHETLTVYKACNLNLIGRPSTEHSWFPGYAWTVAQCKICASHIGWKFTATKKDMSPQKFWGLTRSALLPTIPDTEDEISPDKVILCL
CRBN-DDB1, sequence (Q16531 whole entry partner): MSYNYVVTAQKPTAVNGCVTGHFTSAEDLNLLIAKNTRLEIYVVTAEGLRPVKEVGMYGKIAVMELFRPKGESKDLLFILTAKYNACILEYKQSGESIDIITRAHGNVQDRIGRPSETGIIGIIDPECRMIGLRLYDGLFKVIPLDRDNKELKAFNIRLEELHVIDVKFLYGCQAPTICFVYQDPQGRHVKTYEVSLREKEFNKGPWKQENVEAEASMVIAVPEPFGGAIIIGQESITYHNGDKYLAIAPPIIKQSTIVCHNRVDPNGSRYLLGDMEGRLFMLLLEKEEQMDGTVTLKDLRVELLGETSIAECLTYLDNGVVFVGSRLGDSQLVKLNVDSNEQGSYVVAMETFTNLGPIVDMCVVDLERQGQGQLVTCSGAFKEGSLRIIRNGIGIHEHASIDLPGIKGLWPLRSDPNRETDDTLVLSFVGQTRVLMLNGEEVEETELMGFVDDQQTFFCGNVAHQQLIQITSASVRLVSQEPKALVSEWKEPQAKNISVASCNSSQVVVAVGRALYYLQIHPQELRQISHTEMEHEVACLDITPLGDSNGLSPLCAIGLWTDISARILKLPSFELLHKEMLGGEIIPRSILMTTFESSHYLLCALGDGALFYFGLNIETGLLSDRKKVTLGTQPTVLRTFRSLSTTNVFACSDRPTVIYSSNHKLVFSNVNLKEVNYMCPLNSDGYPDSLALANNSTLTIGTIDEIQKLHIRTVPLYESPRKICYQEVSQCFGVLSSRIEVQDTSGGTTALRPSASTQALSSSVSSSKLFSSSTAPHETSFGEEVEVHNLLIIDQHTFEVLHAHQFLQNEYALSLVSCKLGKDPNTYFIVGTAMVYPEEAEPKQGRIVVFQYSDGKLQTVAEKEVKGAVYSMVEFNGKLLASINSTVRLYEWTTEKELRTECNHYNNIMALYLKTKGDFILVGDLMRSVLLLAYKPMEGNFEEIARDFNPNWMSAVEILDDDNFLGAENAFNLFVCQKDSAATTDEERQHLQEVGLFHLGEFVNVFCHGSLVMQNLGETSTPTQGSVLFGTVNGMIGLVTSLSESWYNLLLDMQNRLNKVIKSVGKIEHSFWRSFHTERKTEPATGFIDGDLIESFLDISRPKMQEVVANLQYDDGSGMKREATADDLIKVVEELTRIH

Compound	Ki (CRBN-DDB1)	Dmax (CDK2)
CC1(CCCOC(=O)NC2CN(c3cc(F)c(C4CCC(=O)NC4=O)c(F)c3)C2)CC1 (stereo not drawn) [Compound 66, 3-(1-methylcyclopropyl)propyl (1-(4-(2,6-dioxopiperidin-3-yl)-3,5-difluorophenyl)azetidin-3-yl)carbamate]	≤ 100 nM	> 80%
O=C1CCC(c2c(F)cc(N3CC(Nc4cc(C5CC6(CCC6)C5)ccn4)C3)cc2F)C(=O)N1 (stereo not drawn) [Compound 106, 3-(2,6-difluoro-4-(3-((4-(spiro[3.3]heptan-2-yl)pyridin-2-yl)amino)azetidin-1-yl)phenyl)piperidine-2,6-dione]	≤ 100 nM	50 to 80%
O=C1CCC(c2c(F)cc(N3CC(Nc4nnc(CCC5CC5)o4)C3)cc2F)C(=O)N1 (stereo not drawn) [Compound 127, 3-(4-(3-((5-(2-cyclopropylethyl)-1,3,4-oxadiazol-2-yl)amino)azetidin-1-yl)-2,6-difluorophenyl)piperidine-2,6-dione]	≤ 100 nM	10 to 50%
